Assay results as given in the Deep4Chem optical property database.

Test: solvent given as SMILES

SMILES: O=S(=O)(c1cccc(-n2c3ccccc3c3ccccc32)c1)c1cccc(-n2c3ccccc3c3ccccc32)c1
- emission maximum (in C1CCOC1): 426 nm
- emission maximum (in CCCCC(CC)n1c2ccc(-n3c4ccccc4c4ccccc43)cc2c2cc(-n3c4ccccc4c4ccccc43)ccc21): 409.97 nm
- emission maximum (in Cc1ccccc1): 405 nm
- emission maximum (in ClC(Cl)Cl): 422 nm
- emission maximum (in c1cc(-n2c3ccccc3c3ccccc32)cc(-n2c3ccccc3c3ccccc32)c1): 419.94 nm

SMILES: Cc1c(C)c2c3ccccc3[nH]c2c2ccccc12
- emission maximum (in ClCCl): 370 nm

SMILES: O=C(/C=C(\O)c1ccc(N2c3ccccc3Oc3ccccc32)cc1)c1ccc(N2c3ccccc3Oc3ccccc32)cc1
- emission maximum (in Cc1ccccc1): 594 nm
- emission maximum (in c1ccc2c(c1)c1ccccc1n2-c1ccc(-c2ccc(-n3c4ccccc4c4ccccc43)cc2)cc1): 550.32 nm

SMILES: c1ccc2c(c1)Sc1ccccc1N2c1ccc2c(ccc3nc4ccc5cc(N6c7ccccc7Sc7ccccc76)ccc5c4nc32)c1
- emission maximum (in C1CCCCC1): 543 nm
- emission maximum (in Cc1ccccc1): 657 nm

SMILES: CC(C)[Si](C#Cc1ccc(C#C[Si](C(C)C)(C(C)C)C(C)C)c2nc3cc4c(cc3nc12)[C@H]1c2ccccc2[C@@H]4c2ccccc21)(C(C)C)C(C)C
- emission maximum (in CCCCCC): 455 nm
- emission maximum (in ClCCl): 473 nm

SMILES: O=Cc1ccc(-c2ccc(C3=CCC(c4ccccc4)CC3)s2)s1 (configuration not stated)
- emission maximum (in C1CCOC1): 446 nm
- emission maximum (in CC#N): 483 nm
- emission maximum (in CCCCCC): 443 nm
- emission maximum (in CCO): 498 nm
- emission maximum (in OCCOCCO): 506 nm
- emission maximum (in c1ccncc1): 481 nm

SMILES: Cc1c(C)c(B(c2c(C)c(C)c(C#N)c(C)c2C)c2c(C)c(C)c(N3c4ccccc4Oc4ccccc43)c(C)c2C)c(C)c(C)c1C#N
- emission maximum (in c1ccc([Si](c2ccccc2)(c2ccc(-n3c4ccccc4c4ccccc43)cc2)c2ccc(-n3c4ccccc4c4ccccc43)cc2)cc1): 533 nm

SMILES: COc1ccc(C(=Cc2ccc(C=O)cc2)c2ccc(OC)cc2)cc1
- emission maximum (in C1CCOC1): 396 nm

SMILES: CC(C)(C)c1ccc2c(c1)Sc1cc(C(C)(C)C)ccc1N2c1ccc2c(ccc3nc4ccc5cc(N6c7ccc(C(C)(C)C)cc7Sc7cc(C(C)(C)C)ccc76)ccc5c4nc32)c1
- emission maximum (in C1CCCCC1): 575 nm
- emission maximum (in Cc1ccccc1): 682 nm

SMILES: CCn1c2ccccc2c2cc(/C=C/c3cccc[n+]3CCCS(=O)(=O)[O-])ccc21
- emission maximum (in C1CCOC1): 559 nm
- emission maximum (in CC#N): 565 nm
- emission maximum (in CC(C)=O): 565 nm
- emission maximum (in Cc1ccccc1): 590 nm

SMILES: O=c1c2ccc(N3CCCCC3)cc2oc2cc(N3CCCCC3)ccc12
- emission maximum (in CO): 448.15 nm
- emission maximum (in ClCCl): 407.47 nm

SMILES: CN(C)c1ccc(/C=C/c2cc(/C=C/c3ccc(N(C)C)cc3)nc(/C=C/c3ccc(N(c4ccccc4)c4ccccc4)cc3)n2)cc1
- emission maximum (in C1CCOC1): 521 nm
- emission maximum (in CC#N): 584 nm
- emission maximum (in CC(C)=O): 561 nm
- emission maximum (in CCCCCCC): 451 nm
- emission maximum (in CS(C)=O): 596 nm
- emission maximum (in Cc1ccccc1): 480 nm
- emission maximum (in ClCCl): 533 nm

SMILES: COC(=O)c1ccc(/C=C2\C=C(c3ccc(C#N)cc3)N(CC(C)C)C2=O)cc1
- emission maximum (in C1COCCO1): 589 nm

SMILES: Oc1ccccc1/C=N/c1ccc(Cn2cncn2)cc1
- emission maximum (in C1CCOC1): 363.99 nm
- emission maximum (in C1COCCO1): 324 nm
- emission maximum (in CC#N): 428.01 nm
- emission maximum (in CC(C)=O): 381 nm
- emission maximum (in CC(C)O): 367 nm
- emission maximum (in CCCCCC): 314 nm
- emission maximum (in CCCCO): 368 nm
- emission maximum (in CCO): 407 nm
- emission maximum (in CCOC(C)=O): 357 nm
- emission maximum (in CCOCC): 346 nm
- emission maximum (in CN(C)C=O): 397.99 nm
- emission maximum (in CO): 430 nm
- emission maximum (in CS(C)=O): 437.01 nm
- emission maximum (in Cc1ccccc1): 326 nm
- emission maximum (in ClCCl): 363 nm

SMILES: CC[N+]1(CC)CN2C(=N1)C(C(=O)O)=Cc1cc(Oc3ccccc3)ccc12
- emission maximum (in O): 485 nm

SMILES: c1ccc(-c2nc(-c3ccc(-c4ccc(-c5nc(-c6ccccc6)c(-c6ccccc6)o5)cc4)cc3)oc2-c2ccccc2)cc1
- emission maximum (in C1COCCO1): 428 nm

SMILES: COc1cc(/C=C/c2ccncc2)c(OC)cc1C=O
- emission maximum (in C1CCOC1): 448 nm
- emission maximum (in CC#N): 465 nm
- emission maximum (in CN(C)C=O): 463 nm
- emission maximum (in Cc1ccccc1): 446 nm
- emission maximum (in ClCCl): 460 nm

SMILES: CN(C)C1=Nc2cccc3cccc1c23
- emission maximum (in CC#N): 589 nm

SMILES: CCc1cc(CC)cc(-n2c3ccccc3c3cc4c(cc32)c2ccccc2n4-c2cc(CC)cc(CC)c2)c1
- emission maximum (in ClC(Cl)Cl): 416 nm

SMILES: CC1CCC(=CS/C=C/c2ccc(/C=C/SC=C3CCC(C)CC3)cc2)CC1 (configuration not stated)
- emission maximum (in ClCCl): 427 nm

SMILES: N#Cc1ccc(-c2cc(-c3ccc(N4CCCC4)cc3)nc(-c3ccccc3)n2)cc1
- emission maximum (in ClC(Cl)Cl): 518 nm

SMILES: Brc1ccc(-c2nc(-c3ccc(C#Cc4ccc(-n5c6ccccc6c6ccccc65)cc4)cc3)nc(-c3ccc(C#Cc4ccc(-n5c6ccccc6c6ccccc65)cc4)cc3)n2)cc1
- emission maximum (in C1CCOC1): 465 nm
- emission maximum (in CC#N): 563 nm
- emission maximum (in CCCCCC): 411 nm
- emission maximum (in Cc1ccccc1): 432 nm
- emission maximum (in ClCCl): 498 nm
